Results from US20080051447A1, “Treatment Of Hypercholesterolemia, Hypertriglyceridemia And Cardiovascular-Related Conditions Using Phospholipase-A2 Inhibitors” (priority 2005, published 2008).

How the values were obtained:
[1] = target: human pancreatic secreted PLA2 (hps PLA2) (Homo sapiens, UniProt P04054); conditions: reported activity data; cited from earlier work
[2] = target: porcine pancreatic secreted PLA2 (pps PLA2) (Sus scrofa, UniProt P00592); conditions: reported activity data; cited from earlier work
human PLA2 IB enzyme = human PLA2 IB enzyme (Homo sapiens, UniProt P04054); conditions: pyrene substrate release from vesicles (Singer, Ghomashchi et al. 2002); read-out: IC50 versus the human PLA2 IB enzyme; cited from earlier work
Stability at low pH = type: physicochemical; conditions: predicted to survive passage through the stomach
[3] = test system: wild-type C57BL/6 mice on high fat/high sucrose diet; test: Serum cholesterol and triglycerides in mice on high fat/high sucrose diabetogenic diet (Example 5C); type: in vivo; conditions: 10 weeks
Experimental: (§1) ILY-4001 (FIG. 2) was evaluated as a PLA2 IB inhibitor in a set of experiments using wild-type mice and genetically deficient PLA2 (−/−) mice (also referred to herein as PLA2 knock-out (KO) mice). In these experiments, wild-type and PLA2 (−/−) mice were maintained on a high fat/high sucrose diet, details of which are described below.
(§2) Briefly, four groups were set up, each having six mice. Three of the groups included six wild-type PLA2 (+/+) mice in each group (eighteen mice total), and one of the groups included six genetically deficient PLA2 (−/−) mice. One of the wild-type groups was used as a wild-type control group, and was not treated with ILY-4001. The other two wild-type groups were treated with ILY-4001—one group at a lower dose (indicated as “L” in Table 1) of 25 mg/kg/day, and the other at a higher dose (indicated as “H” in Table 1) of 90 mg/kg/day. The group comprising the PLA2 (−/−) mice was used as a positive control group.
(§3) The experimental protocol used in this study was as follows. The four groups of mice, including wild type and isogenic PLA2 (−/−) C57BL/J mice were acclimated for three days on a low fat/low carbohydrate diet. After the three day acclimation phase, the animals were fasted overnight and serum samples taken to establish baseline plasma cholesterol, triglyceride, and glucose levels, along with baseline body weight. The mice in each of the treatment groups were then fed a high fat/high sucrose diabetogenic diet (Research Diets D12331). 1000 g of the high fat/high sucrose D12331 diet was composed of casein (228 g), DL-methionine (2 g), maltodextrin 10 (170 g), sucrose (175 g), soybean oil (25 g), hydrogenated coconut oil (333.5 g), mineral mix S10001 (40 g), sodium bicarbonate (10.5 g), potassium citrate (4 g), vitamin mix V10001 (10 g), and choline bitartrate (2 g). This diet was supplemented with ILY-4001 treatments such that the average daily dose of the compound ingested by a 25 g mouse was: 0 mg/kg/day (wild-type control group and PLA2 (−/−) control group); 25 mg/kg/day (low-dose wild-type treatment group), or 90 mg/kg/day (high-dose wild-type treatment group). The animals were maintained on the high fat/high sucrose diet, with the designated ILY-4001 supplementation, for a period of ten weeks.
Body weight measurements were taken for all animals in all treatment and control groups at the beginning of the treatment period and at 4 weeks and 10 weeks after initiation of the study. (See Example 5A). Blood draws were also taken at the beginning of the treatment period (baseline) and at 4 weeks and 10 weeks after initiation of the study, in order to determine fasting glucose (See Example 5B). Cholesterol and triglyceride levels were determined from blood draws taken at the beginning of the treatement (baseline) and at ten weeks. […]

mouse PLA2 IB enzyme = mouse PLA2 IB enzyme (Mus musculus, UniProt Q9Z0Y2); conditions: pyrene substrate release from vesicles (Singer, Ghomashchi et al. 2002); read-out: IC50 versus the mouse PLA2 IB enzyme; cited from earlier work
[4] = Pharmokinetic study, bioavailability (Example 6C); type: in vivo, mice; conditions: ORAL 30 mg/kg
Source text: This example characterized ILY-4001 [2-(3-(2-amino-2-oxoacetyl)-1-(biphenyl-2-ylmethyl)-2-methyl-1H-indol-4-yloxy)acetic acid], alternatively referred to herein as methyl indoxam, with respect to activity, as determined by IC50 assay (Example 6A), with respect to cell absorbtion, as determined by in-vitro Caco-2 assay (Example 6B) and with respect to bioavailability, as determined using in-vivo mice studies (Example 6C).
This example evaluated the bioavailability of ILY-4001 [2-(3-(2-amino-2-oxoacetyl)-1-(biphenyl-2-ylmethyl)-2-methyl-1H-indol-4-yloxy)acetic acid], alternatively referred to herein as methyl indoxam. […]
Bioavailability was calculated as a ratio of AUC-oral/AUC-intravenous (IV). To determine this ratio, a first set of subject animals were given a measured intravenous (IV) dose of ILY-4001, followed by a determination of ILY-4001 levels in the blood at various time points after administration (e.g., 5 minutes through 24 hours). Another second set of animals was similarly dosed using oral administration, with blood levels of ILY-4001 determined at various time points after administration (e.g., 30 minutes through 24 hours). The level of ILY-4001 in systemic circulation were determined by generally accepted methods (for example as described in Evans, G., A Handbook of Bioanalysis and Drug Metabolism. Boca Raton, CRC Press (2004)). […]

Caco-2 cells = test: Caco-2 permeability study (Example 6B); type: in vitro ADME, human
Experimental: The culture medium was refreshed every 48 hours.

[5] = test system: wild-type C57BL/6 mice on high fat/high sucrose diet; test: Body weight gain in mice on high fat/high sucrose diabetogenic diet (Example 5A); type: in vivo; conditions: for body weight gain compared to the wild-type control group: week 4 and week 10
Experimental: as §1, §2, §3
Body weight measurements were taken for all animals in all treatment and control groups at the beginning of the treatment period and at 4 weeks and 10 weeks after initiation of the study. (See Example 5A). Blood draws were also taken at the beginning of the treatment period (baseline) and at 4 weeks and 10 weeks after initiation of the study, in order to determine fasting glucose (See Example 5B). Cholesterol and triglyceride levels were determined from blood draws taken at the beginning of the treatement (baseline) and at ten weeks. (See Example 5C).
In the study generally described above in Example 5, body weight measurements were taken for all animals in all treatment and control groups at the beginning of the treatment period and at 4 weeks and 10 weeks after initiation of the study.

[6] = test system: wild-type C57BL/6 mice on high fat/high sucrose diet; test: Fasting serum glucose in mice on high fat/high sucrose diabetogenic diet (Example 5B); type: in vivo; conditions: low dose 25 mg/kg/day (group 2)
Experimental: as §1, §2
The experimental protocol used in this study was as follows. […]
Body weight measurements were taken for all animals in all treatment and control groups at the beginning of the treatment period and at 4 weeks and 10 weeks after initiation of the study. […] Cholesterol and triglyceride levels were determined from blood draws taken at the beginning of the treatement (baseline) and at ten weeks. […]

[7] = high dose 90 mg/kg/day (group 3)
[8] = low dose 25 mg/kg/day (group 2)

Chain of human pancreatic secreted PLA2 (hps PLA2) (P04054 23-148): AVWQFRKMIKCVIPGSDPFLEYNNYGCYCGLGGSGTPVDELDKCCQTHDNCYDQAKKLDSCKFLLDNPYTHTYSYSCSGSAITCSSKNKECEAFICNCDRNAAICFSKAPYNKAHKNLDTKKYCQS
Chain of porcine pancreatic secreted PLA2 (pps PLA2) (P00592 23-146): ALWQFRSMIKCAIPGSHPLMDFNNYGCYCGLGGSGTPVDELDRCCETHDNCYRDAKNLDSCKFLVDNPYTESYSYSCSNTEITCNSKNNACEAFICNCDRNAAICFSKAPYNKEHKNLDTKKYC
Chain of mouse PLA2 IB enzyme (Q9Z0Y2 23-146): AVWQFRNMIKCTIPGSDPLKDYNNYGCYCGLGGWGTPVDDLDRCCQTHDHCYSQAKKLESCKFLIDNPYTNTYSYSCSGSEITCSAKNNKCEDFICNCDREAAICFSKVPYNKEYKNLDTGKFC
Chain of human PLA2 IB enzyme (P04054 23-148): as the sequence (P04054 23-148) above

Compound: Cc1c(CC(=O)NN)c2cc(OCCCC(=O)O)ccc2n1Cc1ccccc1
- IC50 hps PLA2 [1]: no activity
- IC50 pps PLA2 [2]: no activity

Compound: Cc1c(C(=O)C(N)=O)c2c(/C=C/C(=O)O)cccc2n1Cc1ccccc1
- IC50 [1]: > 100 µM

Compound: Cc1c(C(=O)C(N)=O)c2c(CCC(=O)O)cccc2n1Cc1ccccc1
- IC50 [1]: > 100 µM

Compound: Cc1c(C(=O)C(N)=O)c2c(OCC(=O)O)cccc2n1Cc1ccccc1-c1ccccc1 [ILY-4001, 2-(3-(2-amino-2-oxoacetyl)-1-(biphenyl-2-ylmethyl)-2-methyl-1H-indol-4-yloxy)acetic acid]
- IC50 (human PLA2 IB enzyme): ~200 nM
- stability at low pH (Stability at low pH): stable at low pH
- plasma levels of cholesterol [3, 7]: substantially reduced
- plasma levels of triglycerides [3, 7]: substantially reduced
- plasma levels of cholesterol [3, 8]: substantially reduced
- plasma levels of triglycerides [3, 8]: substantially reduced
- IC50 (mouse PLA2 IB enzyme): ~150 nM
- level of non-absorption from the GI tract into systemic circulation [4]: ~72%
- apparent permeability (Caco-2 cells; Caco-2 monolayers, apical to basolateral, 50 ug/ml): around 1.66×10^−7 cm/s
- absorbtion from the GI lumen (Caco-2 cells; based on Caco-2 assays and pharmokinetic studies): relatively low absorbtion
- body weight gain relative to PLA2 (−/−) mice ([5]; 25 mg/kg/d (low-dose) in diet, ten weeks): modulated to an extent comparable to that achieved in the PLA2 (−/−) mice
- body weight gain relative to PLA2 (−/−) mice ([5]; 25 mg/kg/d in diet, four weeks): modulated to an extent approaching that achieved in the PLA2 (−/−) mice
- body weight gain compared to the wild-type control group ([5]; 25 mg/kg/d in diet): significantly reduced body weight gains
- body weight gain relative to PLA2 (−/−) mice ([5]; 90 mg/kg/d in diet, four weeks): modulated to an extent approaching that achieved in the PLA2 (−/−) mice
- body weight gain compared to the wild-type control group ([5]; 90 mg/kg/d in diet): significantly reduced body weight gains
- fasting glucose levels ([6]; week four): moderately beneficial effect
- fasting glucose levels ([6]; week ten): a beneficial effect was not observed

Compound: Lucifer Yellow [reference compound]
- apparent permeability (paracellular transport control) (Caco-2 cells; Caco-2): around 2.82×10^−7+/−0.37×10^−7 cm/s
